Test results taken from US9133219B2, “Bicyclic antibiotics” (Basilea Pharmaceutica AG, priority 2009, dated 2015).
In brackets after ≈: the same amount, converted by molar mass.

Key:
Type in all cases: cell-based
[1] = test system: Staphylococcus epidermidis; experiment: Anti-microbial activity assay, MIC by broth microdilution; conditions: Staphylococcus epidermidis; strain ATCC14990
Method: (§1) Anti-Microbial Activity Assay.
(§2) The antibacterial activity of compounds is determined by the minimal inhibitory concentration (MIC) method. MICs for all bacteria except pneumococci and Haemophilus influenzae are obtained by broth microdilution with cation-adjusted Mueller-Hinton broth (CAMHB; BBL), according to CLSI guidelines (National Committee for Clinical Laboratory Standards. 2003. Methods for dilution antimicrobial susceptibility tests for bacteria that grow aerobically, 5th ed.; approved standard M7-A6. National Committee for Clinical Laboratory Standards, Wayne, Pa.), with the following modifications: (i) for pneumococci CAMHB is supplemented with 5% (^v/v) horse serum; (ii) for Haemophilus influenzae CAMHB is supplemented with 5% (^v/v) Fildes enrichment (BBL) (Pankuch, G. A., Hoellman, D. B., Lin, G., Bajaksouzian, S., Jacobs, M. R., and Appelbaum, P. C. 1998. Activity of HMR 3647 compared to those of five agents against Haemophilus influenzae and Moraxella catarrhalis by MIC determination and time-kill assay. Antimicrob. Agents Chemother. 42:3032-3034). Microtiter plates are incubated at 35° C. in ambient air for 20 to 24 h, then inspected using an illuminated microtiter plate reader fitted with a magnifying mirror (MIC 2000; Cooke Laboratory Products, Alexandria, Va.). Compounds of the present invention are tested against several bacteria strains comprising some Acinetobacter baumannii, Enterococcus faecalis, Enterococcus faecitan, Escherichia coli, Haemophilus influenzae, Klebsiella pneumoniae, Pseudomonas aeruginosa, Staphylococcus aureus, Staphylococcus epidermidis and Streptococcus pneumoniae.

Escherichia coli = experiment: as above; conditions: Escherichia coli; strain UB1005; read-out: MIC Escherichia coli UB1005
Method: as §1, §2

Staphylococcus aureus = experiment: as above; conditions: Staphylococcus aureus; strain ATCC29213; read-out: MIC Staphylococcus aureus ATCC29213
Method: as §1, §2

Streptococcus pneumoniae = experiment: Anti-microbial activity assay, MIC by broth microdilution (CAMHB with 5% horse serum); conditions: Streptococcus pneumoniae; strain ATCC49619; CAMHB with 5% horse serum; read-out: MIC Streptococcus pneumoniae ATCC49619
Method: as §1, §2

[2] = test system: Staphylococcus aureus and/or Staphylococcus epidermidis; experiment: MIC summary statement, staphylococci; conditions: generally, for Staphylococcus aureus and/or Staphylococcus epidermidis
Method: as §1, §2

[3] = test system: Staphylococcus aureus and/or Staphylococcus epidermidis and/or Streptococcus pneumoniae; experiment: MIC summary statement, staphylococci and pneumococci; conditions: generally, for Staphylococcus aureus and/or Staphylococcus epidermidis and/or Streptococcus pneumoniae
Method: as §1, §2

Row | Structure (SMILES) | MIC [1] [mg/L] | MIC (Escherichia coli) [mg/L] | MIC (Staphylococcus aureus) [mg/L] | MIC (Streptococcus pneumoniae) [mg/L] | MIC [2] [mg/L] | MIC [3] [mg/L]
1 | COc1ccc2ncc(C(=O)OC[C@H]3CC[C@H](NCCSc4cccs4)CC3)cc2n1 [Example 31, 6-methoxy-[1,5]naphthyridine-3-carboxylic acid trans-4-[2-(thiophen-2-ylsulfanyl)-ethylamino]-cyclohexylmethyl ester] | 4 (≈ 8.74 µM) | > 32 | ≤ 2 | 8 (≈ 17.5 µM) | ≤ 2 | 
2 | COc1ccc2ncc(SCCN3CCC(NCc4ccc5c(c4)OCCO5)CC3)nc2c1 [Example 41, (2,3-dihydro-benzo[1,4]dioxin-6-ylmethyl)-{1-[2-(7-methoxy-quinoxalin-2-ylsulfanyl)-ethyl]-piperidin-4-yl}-amine] | ≤ 2 | 8 (≈ 17.1 µM) | ≤ 2 | ≤ 2 | ≤ 2 | ≤ 2
3 | COc1ccc2ncc(OCC[C@H]3CC[C@H](NC(=O)c4ccc5c(n4)NC(=O)CO5)CC3)cc2n1 [Example 3, 3-oxo-3,4-dihydro-2H-pyrido[3,2-b][1,4]oxazine-6-carboxylic acid {trans-4-[2-(6-methoxy-[1,5]naphthyridin-3-yloxy)-ethyl]-cyclohexyl}-amide] | ≤ 2 | > 32 | ≤ 2 | 16 (≈ 33.5 µM) | ≤ 2 | 
4 | COc1ccc2ncc(SCCN3CCC(NC(=O)c4ccc5c(c4)OCCO5)CC3)nc2c1 [Example 39, 2,3-dihydro-benzo[1,4]dioxine-6-carboxylic acid {1-[2-(7-methoxy-quinoxalin-2-ylsulfanyl)-ethyl]-piperidin-4-yl}-amide] | ≤ 2 | ≥ 32 | ≤ 2 | ≤ 2 | ≤ 2 | ≤ 2
5 | O=C1CSc2ccc(C(=O)N[C@H]3CC[C@H](CCOc4cnc5ccc(F)cc5n4)CC3)cc2N1 [Example 7, 3-oxo-3,4-dihydro-2H-benzo[1,4]thiazine-6-carboxylic acid {trans-4-[2-(7-fluoro-quinoxalin-2-yloxy)-ethyl]-cyclohexyl}-amide] | > 32 | > 32 | ≤ 2 | > 32 | ≤ 2 | 
6 | COc1ccc2ncc(OCC[C@H]3CC[C@H](NC(=O)c4ccc5c(c4)NC(=O)CO5)CC3)cc2n1 [Example 6, 3-oxo-3,4-dihydro-2H-benzo[1,4]oxazine-6-carboxylic acid {trans-4-[2-(6-methoxy-[1,5]naphthyridin-3-yloxy)-ethyl]-cyclohexyl}-amide] | ≤ 2 | > 32 | ≤ 2 | 4 (≈ 8.39 µM) | ≤ 2 | 
7 | COc1ccc2ncc(C(=O)OC[C@H]3CC[C@H](NCc4ccc5c(c4)OCCO5)CC3)cc2n1 [Example 29, 6-methoxy-[1,5]naphthyridine-3-carboxylic acid trans-4-[(2,3-dihydro-benzo[1,4]dioxin-6-ylmethyl)-amino]-cyclohexylmethyl ester] | ≤ 2 | > 32 | ≤ 2 | 4 (≈ 8.63 µM) | ≤ 2 | 
8 | COc1ccc2ncc(SCCN3CCC(NCc4cc(-c5cccs5)on4)CC3)nc2c1 [Example 42, {1-[2-(7-methoxy-quinoxalin-2-ylsulfanyl)-ethyl]-piperidin-4-yl}-(5-thiophen-2-yl-isoxazol-3-ylmethyl)-amine] | ≤ 2 | 8 (≈ 16.6 µM) | ≤ 2 | ≤ 2 | ≤ 2 | ≤ 2
9 | COc1ccc2ncc(SCCN3CCC(NC(=O)c4nc5c(cc4Cl)SCC(=O)N5)CC3)cc2c1 [Example 56, 7-chloro-3-oxo-3,4-dihydro-2H-pyrido[3,2-b][1,4]thiazine-6-carboxylic acid {1-[2-(6-methoxy-quinolin-3-ylsulfanyl)-ethyl]-piperidin-4-yl}-amide] | 4 (≈ 7.35 µM) | 4 (≈ 7.35 µM) | ≤ 2 | 16 (≈ 29.4 µM) | ≤ 2 | 
10 | COc1ccc2ncc(OCCCN3CC(NC(=O)c4ccc5c(c4)NC(=O)CS5)C3)nc2c1 [Example 8, 3-oxo-3,4-dihydro-2H-benzo[1,4]thiazine-6-carboxylic acid {1-[3-(7-methoxy-quinoxalin-2-yloxy)-propyl]-azetidin-3-yl}-amide] | 4 (≈ 8.34 µM) | 16 (≈ 33.4 µM) | ≤ 2 | 16 (≈ 33.4 µM) | ≤ 2 | 
11 | COc1ccc2ncc(OCCN3CCC(NC(=O)c4ccc5c(c4)NC(=O)CS5)CC3)nc2c1 [Example 1, 3-oxo-3,4-dihydro-2H-benzo[1,4]thiazine-6-carboxylic acid {1-[2-(7-methoxy-quinoxalin-2-yloxy)-ethyl]-piperidin-4-yl}-amide] | ≤ 2 | 8 (≈ 16.2 µM) | ≤ 2 | 4 (≈ 8.1 µM) | ≤ 2 | 
12 | COc1ccc2ncc(SCCN3CCC(N(C)C(=O)c4ccc5c(c4)NC(=O)CS5)CC3)nc2c1 [Example 52, 3-oxo-3,4-dihydro-2H-benzo[1,4]thiazine-6-carboxylic acid {1-[2-(7-methoxy-quinoxalin-2-ylsulfanyl)-ethyl]-piperidin-4-yl}-methyl-amide] | ≤ 2 | 16 (≈ 30.6 µM) | ≤ 2 | ≤ 2 | ≤ 2 | ≤ 2
13 | COc1ccc2ncc(SCCN3CCC(NC(=O)c4cc(-c5cccs5)on4)CC3)nc2c1 [Example 35, 5-thiophen-2-yl-isoxazole-3-carboxylic acid {1-[2-(7-methoxy-quinoxalin-2-ylsulfanyl)-ethyl]-piperidin-4-yl}-amide] | ≤ 2 | > 32 | ≤ 2 | ≤ 2 | ≤ 2 | ≤ 2
14 | COc1ccc2ncc(OCCN3CCC(NC(=O)c4cc(-c5cccs5)on4)CC3)nc2c1 [Example 5, 5-thiophen-2-yl-isoxazole-3-carboxylic acid {1-[2-(7-methoxy-quinoxalin-2-yloxy)-ethyl]-piperidin-4-yl}-amide] | ≤ 2 | > 32 | ≤ 2 | ≤ 2 | ≤ 2 | ≤ 2
15 | COc1ccc2ncc(OCC[C@H]3CC[C@H](NC(=O)c4ccc5c(c4)NC(=O)CS5)CC3)nc2c1 [Example 4, 3-oxo-3,4-dihydro-2H-benzo[1,4]thiazine-6-carboxylic acid {trans-4-[2-(7-methoxy-quinoxalin-2-yloxy)-ethyl]-cyclohexyl}-amide] | ≤ 2 | > 32 | ≤ 2 | > 32 | ≤ 2 | 
16 | COc1ccc2ncc(OCCN3CCC(NC(=O)c4ccc5c(n4)NC(=O)CS5)CC3)nc2c1 [Example 20, 3-oxo-3,4-dihydro-2H-pyrido[3,2-b][1,4]thiazine-6-carboxylic acid {1-[2-(7-methoxy-quinoxalin-2-yloxy)-ethyl]-piperidin-4-yl}-amide] | ≤ 2 | > 32 | ≤ 2 | > 32 | ≤ 2 | 
17 | COc1cnc2ccc(OCCN3CCC(NC(=O)c4cc5c(cc4Cl)SCC(=O)N5)CC3)nc2c1 [Example 19, 7-chloro-3-oxo-3,4-dihydro-2H-benzo[1,4]thiazine-6-carboxylic acid {1-[2-(7-methoxy-[1,5]naphthyridin-2-yloxy)-ethyl]-piperidin-4-yl}-amide] | ≤ 2 | 4 (≈ 7.58 µM) | ≤ 2 | 8 (≈ 15.2 µM) | ≤ 2 | 
18 | COc1ccc2ccc(OCCN3CCC(NC(=O)c4ccc5c(n4)NC(=O)CS5)CC3)nc2c1 [Example 17, 3-oxo-3,4-dihydro-2H-pyrido[3,2-b][1,4]thiazine-6-carboxylic acid {1-[2-(7-methoxy-quinolin-2-yloxy)-ethyl]-piperidin-4-yl}-amide] | 4 (≈ 8.1 µM) | > 32 | ≤ 2 | 16 (≈ 32.4 µM) | ≤ 2 | 
19 | COc1ccc2ncc(OC(CN3CCC(NC(=O)c4ccc5c(c4)NC(=O)CS5)CC3)C(F)(F)F)nc2c1 (stereo not shown) [Example 14, 3-oxo-3,4-dihydro-2H-benzo[1,4]thiazine-6-carboxylic acid {1-[3,3,3-trifluoro-2-(7-methoxy-quinoxalin-2-yloxy)-propyl]-piperidin-4-yl}-amide] | 8 (≈ 14.2 µM) | > 32 | ≤ 2 | 8 (≈ 14.2 µM) | ≤ 2 | 
20 | COc1ccc2ncc(OCCN3CCC(NC(=O)c4cc5c(cc4Cl)SCC(=O)N5)CC3)nc2c1 [Example 15, 7-chloro-3-oxo-3,4-dihydro-2H-benzo[1,4]thiazine-6-carboxylic acid {1-[2-(7-methoxy-quinoxalin-2-yloxy)-ethyl]-piperidin-4-yl}-amide] | ≤ 2 | 4 (≈ 7.58 µM) | ≤ 2 | 8 (≈ 15.2 µM) | ≤ 2 | 
